In patent publication US20170190671A1, “BIS(ARYL)CATECHOL DERIVATIVES AS HERBICIDES” (E I DU PONT DE NEMOURS AND COMPANY, priority 2014, published 2017):

Assays:
Experiment in all cases: Test D preemergence
Type in all cases: in vivo
Settings in all cases: scale 0 to 100
[1] = test system: Russian thistle (Salsola kali)
Excerpt: (§1) Seeds of plant species selected from bluegrass (annual bluegrass, Poa annua), blackgrass (Alopecurus myosuroides), canarygrass (Phalaris minor), chickweed (common chickweed, Stellaria media), cutleaf geranium (Geranium dissectum), galium (catchweed bedstraw, Galium aparine), downy bromegrass (Bromus tectorum), field poppy (Papaver rhoeas), field violet (Viola arvensis), green foxtail (Setaria viridis), deadnettle (henbit deadnettle, Lamium amplexicaule), Italian ryegrass (Lolium multiflorum), kochia (Kochia scoparia), lambsquarters (Chenopodium album), oilseed rape (Brassica napus), pigweed (Amaranthus retroflexus), chamomile (scentless chamomile, Matricaria inodora), Russian thistle (Salsola kali), speedwell (bird's-eye speedwell, Veronica persica), spring barley (Hordeum vulgare), spring wheat (Triticum aestivum), wild buckwheat (Polygonum convolvulus), wild mustard (Sinapis arvensis), wild oat (Avenafatua), wild radish (Raphanus raphanistrum), windgrass (Apera spica-venti), winter barley (Hordeum vulgare), and winter wheat (Triticum aestivum) were planted into a silt loam soil and treated preemergence with test chemicals formulated in a non-phytotoxic solvent mixture which included a surfactant.
(§2) At the same time, these species were planted in pots containing Redi-Earth® planting medium (Scotts Company, 14111 Scottslawn Road, Marysville, Ohio 43041) comprising spaghnum peat moss, vermiculite, wetting agent and starter nutrients and treated with postemergence applications of the test chemicals formulated in the same manner. Plants ranged in height from 2 to 18 cm (1- to 4-leaf stage). Treated plants and controls were maintained in a controlled growth environment for 14 to 21 days after which time all species were compared to controls and visually evaluated. Plant response ratings, summarized in Table D, are based on a scale of 0 to 100 where 0 is no effect and 100 is complete control. A dash (-) response means no test result.

[2] = test system: bluegrass (annual bluegrass, Poa annua)
Excerpt: as §1, §2

[3] = test system: chickweed (common chickweed, Stellaria media)
Excerpt: as §1, §2

[4] = test system: cutleaf geranium (Geranium dissectum)
Excerpt: as §1, §2

[5] = test system: downy bromegrass (Bromus tectorum)
Excerpt: as §1, §2

[6] = test system: field poppy (Papaver rhoeas)
Excerpt: as §1, §2

[7] = test system: field violet (Viola arvensis)
Excerpt: as §1, §2

[8] = test system: green foxtail (Setaria viridis)
Excerpt: as §1, §2

[9] = test system: lambsquarters (Chenopodium album)
Excerpt: as §1, §2

[10] = test system: oilseed rape (Brassica napus)
Excerpt: as §1, §2

[11] = test system: pigweed (Amaranthus retroflexus)
Excerpt: as §1, §2

[12] = test system: spring barley (Hordeum vulgare)
Excerpt: as §1, §2

[13] = test system: wild buckwheat (Polygonum convolvulus)
Excerpt: as §1, §2

[14] = test system: windgrass (Apera spica-venti)
Excerpt: as §1, §2

[15] = test system: winter barley (Hordeum vulgare)
Excerpt: as §1, §2

Fc1cnc(Oc2c(Br)cccc2Oc2ncc(Cl)cn2)nc1 [Compound 22]
Plant response rating, Russian Thistle ([1]; 16 g ai/ha): 0 | Plant response rating, Russian Thistle ([1]; 31 g ai/ha): 0 | Plant response rating, Russian Thistle ([1]; 62 g ai/ha): 5 | Plant response rating, Russian Thistle ([1]; 125 g ai/ha): 5 | Plant response rating, Bluegrass ([2]; 16 g ai/ha): 0 | Plant response rating, Bluegrass ([2]; 31 g ai/ha): 20 | Plant response rating, Bluegrass ([2]; 62 g ai/ha): 60 | Plant response rating, Bluegrass ([2]; 125 g ai/ha): 90 | Plant response rating, Chickweed ([3]; 16 g ai/ha): 10 | Plant response rating, Chickweed ([3]; 31 g ai/ha): 25 | Plant response rating, Chickweed ([3]; 62 g ai/ha): 100 | Plant response rating, Chickweed ([3]; 125 g ai/ha): 100 | Plant response rating, Geranium, Cutleaf ([4]; 16 g ai/ha): 25 | Plant response rating, Geranium, Cutleaf ([4]; 31 g ai/ha): 35 | Plant response rating, Geranium, Cutleaf ([4]; 62 g ai/ha): 70 | Plant response rating, Geranium, Cutleaf ([4]; 125 g ai/ha): 100 | Plant response rating, Bromegrass, Downy ([5]; 16 g ai/ha): 15 | Plant response rating, Bromegrass, Downy ([5]; 31 g ai/ha): 25 | Plant response rating, Bromegrass, Downy ([5]; 62 g ai/ha): 30 | Plant response rating, Bromegrass, Downy ([5]; 125 g ai/ha): 35 | Plant response rating, Field Poppy ([6]; 16 g ai/ha): 65 | Plant response rating, Field Poppy ([6]; 31 g ai/ha): 95 | Plant response rating, Field Poppy ([6]; 62 g ai/ha): 100 | Plant response rating, Field Poppy ([6]; 125 g ai/ha): 100 | Plant response rating, Field Violet ([7]; 16 g ai/ha): 15 | Plant response rating, Field Violet ([7]; 31 g ai/ha): 75 | Plant response rating, Field Violet ([7]; 62 g ai/ha): 95 | Plant response rating, Field Violet ([7]; 125 g ai/ha): 95 | Plant response rating, Foxtail, Green ([8]; 16 g ai/ha): 15 | Plant response rating, Foxtail, Green ([8]; 31 g ai/ha): 35 | Plant response rating, Foxtail, Green ([8]; 62 g ai/ha): 40 | Plant response rating, Foxtail, Green ([8]; 125 g ai/ha): 40 | Plant response rating, Lambsquarters ([9]; 16 g ai/ha): 20 | Plant response rating, Lambsquarters ([9]; 31 g ai/ha): 85 | Plant response rating, Lambsquarters ([9]; 62 g ai/ha): 100 | Plant response rating, Lambsquarters ([9]; 125 g ai/ha): 100 | Plant response rating, Oilseed Rape ([10]; 16 g ai/ha): 30 | Plant response rating, Oilseed Rape ([10]; 31 g ai/ha): 40 | Plant response rating, Oilseed Rape ([10]; 62 g ai/ha): 70 | Plant response rating, Oilseed Rape ([10]; 125 g ai/ha): 90 | Plant response rating, Pigweed ([11]; 16 g ai/ha): 75 | Plant response rating, Pigweed ([11]; 31 g ai/ha): 70 | Plant response rating, Pigweed ([11]; 62 g ai/ha): 100 | Plant response rating, Pigweed ([11]; 125 g ai/ha): 100 | Plant response rating, Barley, Spring ([12]; 16 g ai/ha): 0 | Plant response rating, Barley, Spring ([12]; 31 g ai/ha): 5 | Plant response rating, Barley, Spring ([12]; 62 g ai/ha): 15 | Plant response rating, Barley, Spring ([12]; 125 g ai/ha): 65 | Plant response rating, Buckwheat, Wild ([13]; 16 g ai/ha): 10 | Plant response rating, Buckwheat, Wild ([13]; 31 g ai/ha): 10 | Plant response rating, Buckwheat, Wild ([13]; 62 g ai/ha): 15 | Plant response rating, Buckwheat, Wild ([13]; 125 g ai/ha): 85 | Plant response rating, Windgrass ([14]; 16 g ai/ha): 15 | Plant response rating, Windgrass ([14]; 31 g ai/ha): 20 | Plant response rating, Windgrass ([14]; 62 g ai/ha): 25 | Plant response rating, Windgrass ([14]; 125 g ai/ha): 70 | Plant response rating, Barley, Winter ([15]; 16 g ai/ha): 0 | Plant response rating, Barley, Winter ([15]; 31 g ai/ha): 0 | Plant response rating, Barley, Winter ([15]; 62 g ai/ha): 5 | Plant response rating, Barley, Winter ([15]; 125 g ai/ha): 40
